Reference: patent publication US20210369853A1, “TARGETED PROTEASE DEGRADATION PLATFORM” (EUBULUS BIOTHERAPEUTICS INC., priority 2018, published 2021)
pEC50: −log10 of the molar value.

These compounds were tested on Human Monocytic Leukemia MV4-11 (assay: Cell proliferation experiment (Alarm blue, 72 h, EC50)). Conditions: Homo sapiens, MV4-11, MV4;11 cells.
Format: cell-based
Protocol: (2.1) Cell Proliferation Experiment:
Reagents: RPMI-1640 medium, McCoy's 5A medium, IMDM medium, MEM medium, L-15 medium, fetal bovine serum, Penicillin-Streptomycin double antibody, trypsin, etc., 2-mercaptoethanol, NEAA, pyruvate, etc.
The cells were cultured in conventional ways, and the cells should be passed at least for at least 2 generations before plating. Cells at the logarithmic growth phase are collected, prepared into single cell suspensions and counted. The concentration of cells was adjusted to the desired concentration, and cells were inoculated into a 96-well cell culture plate at 100 μl per well. 100 μL of complete medium of the test compound were added to each well, set up 2 duplicates for each concentration, and diluted with a 5-fold gradient, and continue to culture for 72 h. All cells were subjected to EC50 test for corresponding samples.
The fluorescence intensity of each well was detected using the Alarm blue method, and EC50 was calculated.
EC50 was calculated according to the following formula:
Y=Max+(Min−Max)/[1+(X/EC50)×Slope]
wherein Min, Max and Slope represent the minimum, maximum and slope respectively.

`O=C1CCC(N2Cc3c(NC(=O)CCOCCOCCOCCNCCNC(=O)c4ccc(Nc5ncc6c(n5)-c5ccc(Cl)cc5C(c5c(F)cccc5F)=NC6)cc4)cccc3C2=O)C(=O)N1` (stereo not shown) [UB-180796] and `O=C1CCC(N2Cc3c(NC(=O)CCCCNCCOCCOCCOCCNC(=O)c4ccc(Nc5ncc6c(n5)-c5ccc(Cl)cc5C(c5c(F)cccc5F)=NC6)cc4)cccc3C2=O)C(=O)N1` (stereo not shown) [UB-180772] cannot be ordered by pEC50: < 6.00 for the first, < 6.00 for the second.

`O=C1CCC(N2Cc3c(NC(=O)CCCCNCCOCCOCCOCCNC(=O)[C@]4(Cc5cccc(Nc6nccs6)n5)CC[C@@H](Oc5cccc(Cl)c5F)CC4)cccc3C2=O)C(=O)N1` (stereo partly shown) [UB-180778] and `O=C1CCC(N2Cc3c(NC(=O)CCOCCOCCOCCNCCNC(=O)[C@]4(Cc5cccc(Nc6nccs6)n5)CC[C@@H](Oc5cccc(Cl)c5F)CC4)cccc3C2=O)C(=O)N1` (stereo partly shown) [UB-180797] cannot be ordered by pEC50: < 6.00 for the first, < 6.00 for the second.

First: CC[C@@H]1c2c(C#N)ncn2-c2cnc(Nc3ccc(C(=O)NCCOCCOCCOCCNCCC(=O)Nc4cccc5c4CN(C4CCC(=O)NC4=O)C5=O)cc3OC)nc2N1C1CCCC1 (stereo partly shown) [UB-180700]
Second: CC[C@@H]1C(=O)N(C)c2cnc(Nc3ccc(C(=O)NCCOCCOCCOCCOCCNCCC(=O)Nc4cccc5c4CN(C4CCC(=O)NC4=O)C5=O)cc3OC)nc2N1C1CCCC1 (stereo partly shown) [UB-180813]
The pEC50 of the first is lower: 6.00 to 7.00 for the first, 7.00 to 8.00 for the second. The second is the more potent here.

`Cc1ncsc1-c1ccc(CNC(=O)[C@@H]2C[C@@H](O)CN2C(=O)[C@@H](NC(=O)CCOCCOCCOCCOCCNC(=O)c2ccc(Nc3ncc4c(n3)-c3ccc(Cl)cc3C(c3c(F)cccc3F)=NC4)cc2)C(C)(C)C)cc1` [UB-180531] and `Cc1ncsc1-c1ccc(CNC(=O)[C@@H]2C[C@@H](O)CN2C(=O)[C@@H](NC(=O)CCOCCOCCOCCNC(=O)c2ccc(Nc3ncc4c(n3)-c3ccc(Cl)cc3C(c3c(F)cccc3F)=NC4)cc2)C(C)(C)C)cc1` [UB-180615] fall in the same range of pEC50: 7.00 to 8.00 for the first, 7.00 to 8.00 for the second.

`CC[C@@H]1C(=O)N(C)c2cnc(Nc3ccc(C(=O)NCCOCCOCCOCCNCCC(=O)Nc4cccc5c4CN(C4CCC(=O)NC4=O)C5=O)cc3OC)nc2N1C(C)C` (stereo partly shown) [UB-180710] and `CC[C@@H]1C(=O)N(C)c2cnc(Nc3ccc(C(=O)NCCNCCOCCOCCOCC(=O)Nc4cccc5c4CN(C4CCC(=O)NC4=O)C5=O)cc3OC)nc2N1C1CCCC1` (stereo partly shown) [UB-180815] fall in the same range of pEC50: 7.00 to 8.00 for the first, 7.00 to 8.00 for the second.

`CC[C@@H]1C(=O)N(C)c2cnc(Nc3ccc(C(=O)NC4CCN(CCNCCCC(=O)Nc5cccc6c5CN(C5CCC(=O)NC5=O)C6=O)CC4)cc3OC)nc2N1Cc1ccc(Br)cc1` (stereo partly shown) [UB-180688] and `CC[C@@H]1C(=O)N(C)c2cnc(Nc3ccc(C(=O)NCc4cn(CCNCCC(=O)Nc5cccc6c5CN(C5CCC(=O)NC5=O)C6=O)nn4)cc3OC)nc2N1Cc1ccc(Br)cc1` (stereo partly shown) [UB-180679] fall in the same range of pEC50: 7.00 to 8.00 for the first, 7.00 to 8.00 for the second.

`O=C1CCC(N2Cc3c(NC(=O)CNCCOCCn4cc(CNC(=O)[C@]5(Cc6cccc(Nc7nccs7)n6)CC[C@@H](Oc6cccc(Cl)c6F)CC5)nn4)cccc3C2=O)C(=O)N1` (stereo partly shown) [UB-180742] and `O=C1CCC(N2Cc3c(NC(=O)COCCNCCn4cc(CNC(=O)[C@]5(Cc6cccc(Nc7nccs7)n6)CC[C@@H](Oc6cccc(Cl)c6F)CC5)nn4)cccc3C2=O)C(=O)N1` (stereo partly shown) [UB-180744] fall in the same range of pEC50: 6.00 to 7.00 for the first, 6.00 to 7.00 for the second.

`O=C1CCC(N2Cc3c(NC(=O)CCNCCOCCOCCNC(=O)c4ccc(Nc5ncc6c(n5)-c5ccc(Cl)cc5C(c5c(F)cccc5F)=NC6)cc4)cccc3C2=O)C(=O)N1` (stereo not shown) [UB-180777] and `O=C1CCC(N2Cc3c(NC(=O)CCCCCNCCOCCOCCOCCNC(=O)c4ccc(Nc5ncc6c(n5)-c5ccc(Cl)cc5C(c5c(F)cccc5F)=NC6)cc4)cccc3C2=O)C(=O)N1` (stereo not shown) [UB-180770] fall in the same range of pEC50: 6.00 to 7.00 for the first, 6.00 to 7.00 for the second.

First: CC[C@@H]1C(=O)N(C)c2cnc(Nc3ccc(C(=O)NCCOCCNCCCCCCC(=O)Nc4cccc5c4CN(C4CCC(=O)NC4=O)C5=O)cc3OC)nc2N1Cc1ccc(Br)cc1 (stereo partly shown) [UB-180653]
Second: CC[C@@H]1C(=O)N(C)c2cnc(Nc3ccc(C(=O)NCCOCCOCCNc4cccc5c4CN(C4CCC(=O)NC4=O)C5=O)cc3OC)nc2N1Cc1ccc(Br)cc1 (stereo partly shown) [UB-180568]
The pEC50 of the first is lower: 6.00 to 7.00 for the first, 7.00 to 8.00 for the second. The second is the more potent here.

First: CC[C@@H]1c2c(C#N)ncn2-c2cnc(Nc3ccc(C(=O)NCCNc4cccc5c4CN(C4CCC(=O)NC4=O)C5=O)cc3OC)nc2N1C1CCCC1 (stereo partly shown) [UB-180608]
Second: CC[C@@H]1c2c(C#N)ncn2-c2cnc(Nc3ccc(C(=O)NCCC(=O)Nc4cccc5c4CN(C4CCC(=O)NC4=O)C5=O)cc3OC)nc2N1C1CCCC1 (stereo partly shown) [UB-180621]
The pEC50 of the first is higher: 6.00 to 7.00 for the first, < 6.00 for the second.

First: Cc1ncsc1-c1ccc(CNC(=O)[C@@H]2C[C@@H](O)CN2C(=O)[C@@H](NC(=O)CNCCOCCOCCOCCNC(=O)c2ccc(Nc3ncc4c(n3)-c3ccc(Cl)cc3C(c3c(F)cccc3F)=NC4)cc2)C(C)(C)C)cc1 [UB-180781]
Second: Cc1ncsc1-c1ccc(CNC(=O)[C@@H]2C[C@@H](O)CN2C(=O)[C@@H](NC(=O)COCCOCCOCCOCCNC(=O)c2ccc(Nc3ncc4c(n3)-c3ccc(Cl)cc3C(c3c(F)cccc3F)=NC4)cc2)C(C)(C)C)cc1 [UB-180527]
The pEC50 of the first is higher: 6.00 to 7.00 for the first, < 6.00 for the second. The first is the more potent here.

`O=C1CCC(N2Cc3c(NC(=O)CNCCOCCN4CCC(NC(=O)c5ccc(Nc6ncc7c(n6)-c6ccc(Cl)cc6C(c6c(F)cccc6F)=NC7)cc5)CC4)cccc3C2=O)C(=O)N1` (stereo not shown) [UB-180735] and `O=C1CCC(N2Cc3c(NC(=O)CCNCCn4cc(CNC(=O)c5ccc(Nc6ncc7c(n6)-c6ccc(Cl)cc6C(c6c(F)cccc6F)=NC7)cc5)nn4)cccc3C2=O)C(=O)N1` (stereo not shown) [UB-180726] fall in the same range of pEC50: 6.00 to 7.00 for the first, 6.00 to 7.00 for the second.

Compared with `CC[C@@H]1C(=O)N(C)c2cnc(Nc3ccc(C(=O)NCc4cn(CCNCCCC(=O)Nc5cccc6c5CN(C5CCC(=O)NC5=O)C6=O)nn4)cc3OC)nc2N1Cc1ccc(Cl)s1` (stereo partly shown) [UB-180715], `CC[C@@H]1C(=O)N(C)c2cnc(Nc3ccc(C(=O)NCc4cn(CCNCCOCC(=O)Nc5cccc6c5CN(C5CCC(=O)NC5=O)C6=O)nn4)cc3OC)nc2N1Cc1ccc(C)s1` (stereo partly shown) [UB-180764] is higher in pEC50: 7.00 to 8.00 for the first, > 8.00 for the second. The second is the more potent here.

Compared with `Cc1ncsc1-c1ccc(CNC(=O)[C@@H]2C[C@@H](O)CN2C(=O)[C@@H](NC(=O)COCCCCNC(=O)c2ccc(Nc3ncc4c(n3)-c3ccc(Cl)cc3C(c3c(F)cccc3F)=NC4)cc2)C(C)(C)C)cc1` [UB-180558], `Cc1ncsc1-c1ccc(CNC(=O)[C@@H]2C[C@@H](O)CN2C(=O)[C@H](NC(=O)CCCNCCn2cc(COCCOCCNC(=O)c3ccc(Nc4ncc5c(n4)-c4ccc(Cl)cc4C(c4c(F)cccc4F)=NC5)cc3)nn2)C(C)(C)C)cc1` [UB-180787] is lower in pEC50: 6.00 to 7.00 for the first, < 6.00 for the second. The first is the more potent here.

First: O=C1CCC(N2Cc3c(NC(=O)CCNCCn4ncc(CNC(=O)c5ccc(Nc6ncc7c(n6)-c6ccc(Cl)cc6C(c6c(F)cccc6F)=NC7)cc5)n4)cccc3C2=O)C(=O)N1 (stereo not shown) [UB-180761]
Second: CC[C@@H]1C(=O)N(C)c2cnc(Nc3ccc(C(=O)NCCNCC(=O)Nc4cccc5c4CN(C4CCC(=O)NC4=O)C5=O)cc3OC)nc2N1Cc1ccc(Cl)s1 (stereo partly shown) [UB-180695]
The pEC50 of the first is lower: < 6.00 for the first, 7.00 to 8.00 for the second. The second is the more potent here.

First: CC[C@@H]1C(=O)N(C)c2cnc(Nc3ccc(C(=O)NCCOCCNCCCC(=O)Nc4cccc5c4CN(C4CCC(=O)NC4=O)C5=O)cc3OC)nc2N1C1CCCC1 (stereo partly shown) [UB-180662]
Second: CC[C@@H]1C(=O)N(C)c2cnc(Nc3ccc(C(=O)NCc4cn(CCN(C)CCCC(=O)Nc5cccc6c5CN(C5CCC(=O)NC5=O)C6=O)nn4)cc3OC)nc2N1C1CCCC1 (stereo partly shown) [UB-180716]
The pEC50 of the first is lower: 7.00 to 8.00 for the first, > 8.00 for the second. The second is the more potent here.

`CN(CCOCCOCCOCCNC(=O)[C@]1(Cc2cccc(Nc3nccs3)n2)CC[C@@H](Oc2cccc(Cl)c2F)CC1)CC(=O)Nc1cccc2c1CN(C1CCC(=O)NC1=O)C2=O` (stereo partly shown) [UB-180836] and `O=C1CCC(N2Cc3c(NC(=O)CCNCCOCCOCCOCCOCCNC(=O)[C@]4(Cc5cccc(Nc6nccs6)n5)CC[C@@H](Oc5cccc(Cl)c5F)CC4)cccc3C2=O)C(=O)N1` (stereo partly shown) [UB-180808] fall in the same range of pEC50: 6.00 to 7.00 for the first, 6.00 to 7.00 for the second.

`Cc1ncsc1-c1ccc(CNC(=O)[C@@H]2C[C@@H](O)CN2C(=O)[C@@H](NC(=O)COCCOCCOCCOCCNC(=O)[C@]2(Cc3cccc(Nc4nccs4)n3)CC[C@@H](Oc3cccc(Cl)c3F)CC2)C(C)(C)C)cc1` [UB-180580] and `Cc1ncsc1-c1ccc(CNC(=O)[C@@H]2C[C@@H](O)CN2C(=O)[C@@H](NC(=O)CCOCCOCCOCCNC(=O)[C@]2(Cc3cccc(Nc4nccs4)n3)CC[C@@H](Oc3cccc(Cl)c3F)CC2)C(C)(C)C)cc1` [UB-180612] fall in the same range of pEC50: 6.00 to 7.00 for the first, 6.00 to 7.00 for the second.

`CC[C@@H]1C(=O)N(C)c2cnc(Nc3ccc(C(=O)NC4CCN(CCOCCN(CC(=O)Nc5cccc6c5CN(C5CCC(=O)NC5=O)C6=O)C(=O)OC)CC4)cc3OC)nc2N1C1CCCC1` (stereo partly shown) [UB-180833] and `CC[C@@H]1C(=O)N(C)c2cnc(Nc3ccc(C(=O)NC4CCN(CCOCCN(C=O)CC(=O)Nc5cccc6c5CN(C5CCC(=O)NC5=O)C6=O)CC4)cc3OC)nc2N1C1CCCC1` (stereo partly shown) [UB-180834] fall in the same range of pEC50: 7.00 to 8.00 for the first, 7.00 to 8.00 for the second.

First: Cc1ncsc1-c1ccc(CNC(=O)[C@@H]2C[C@@H](O)CN2C(=O)[C@@H](NC(=O)CNCCOCCOCCOCCNC(=O)[C@]2(Cc3cccc(Nc4nccs4)n3)CC[C@@H](Oc3cccc(Cl)c3F)CC2)C(C)(C)C)cc1 [UB-180783]
Second: O=C1CCC(N2Cc3c(NC(=O)CCNCCOCCN4CCC(NC(=O)[C@]5(Cc6cccc(Nc7nccs7)n6)CC[C@@H](Oc6cccc(Cl)c6F)CC5)CC4)cccc3C2=O)C(=O)N1 (stereo partly shown) [UB-180776]
The pEC50 of the first is lower: < 6.00 for the first, 6.00 to 7.00 for the second. The second is the more potent here.

First: CC[C@@H]1C(=O)N(C)c2cnc(Nc3ccc(C(=O)NC4CCN(CCOCCNCC(=O)Nc5cccc6c5CN(C5CCC(=O)NC5=O)C6=O)CC4)cc3OC)nc2N1Cc1cc(Cl)cs1 (stereo partly shown) [UB-180767]
Second: O=C1CCC(N2Cc3c(NC(=O)COCCNCCN4CCC(NC(=O)[C@]5(Cc6cccc(Nc7nccs7)n6)CC[C@@H](Oc6cccc(Cl)c6F)CC5)CC4)cccc3C2=O)C(=O)N1 (stereo partly shown) [UB-180741]
The pEC50 of the first is higher: 7.00 to 8.00 for the first, < 6.00 for the second.

For `CC[C@@H]1c2c(C#N)ncn2-c2cnc(Nc3ccc(C(=O)NC4CCN(CCCCCOCC(=O)N[C@H](C(=O)N5C[C@H](O)C[C@H]5C(=O)NCc5ccc(-c6scnc6C)cc5)C(C)(C)C)CC4)cc3OC)nc2N1C1CCCC1` [UB-180597], the pEC50 was < 6.00.
